Measurements published in US20240269139A1, “COMPOUNDS FOR TARGETED PROTEIN DEGRADATION OF KINASES” (DANA-FARBER CANCER INSTITUTE, INC., priority 2020, published 2024).
Where “and” joins values, the source holds several entries; their conditions need not be identical. Equal values may be shown once. Read-outs that look alike come from different tables or passages of the source.

Key:
Assay type in all cases: cell-based
[1] = target: protein kinases (human kinome) (Homo sapiens, UniProt P51812); conditions: RPS6KA3 (P51812)
Sequence of protein kinases (human kinome) (Homo sapiens, UniProt P51812) (P51812 whole entry): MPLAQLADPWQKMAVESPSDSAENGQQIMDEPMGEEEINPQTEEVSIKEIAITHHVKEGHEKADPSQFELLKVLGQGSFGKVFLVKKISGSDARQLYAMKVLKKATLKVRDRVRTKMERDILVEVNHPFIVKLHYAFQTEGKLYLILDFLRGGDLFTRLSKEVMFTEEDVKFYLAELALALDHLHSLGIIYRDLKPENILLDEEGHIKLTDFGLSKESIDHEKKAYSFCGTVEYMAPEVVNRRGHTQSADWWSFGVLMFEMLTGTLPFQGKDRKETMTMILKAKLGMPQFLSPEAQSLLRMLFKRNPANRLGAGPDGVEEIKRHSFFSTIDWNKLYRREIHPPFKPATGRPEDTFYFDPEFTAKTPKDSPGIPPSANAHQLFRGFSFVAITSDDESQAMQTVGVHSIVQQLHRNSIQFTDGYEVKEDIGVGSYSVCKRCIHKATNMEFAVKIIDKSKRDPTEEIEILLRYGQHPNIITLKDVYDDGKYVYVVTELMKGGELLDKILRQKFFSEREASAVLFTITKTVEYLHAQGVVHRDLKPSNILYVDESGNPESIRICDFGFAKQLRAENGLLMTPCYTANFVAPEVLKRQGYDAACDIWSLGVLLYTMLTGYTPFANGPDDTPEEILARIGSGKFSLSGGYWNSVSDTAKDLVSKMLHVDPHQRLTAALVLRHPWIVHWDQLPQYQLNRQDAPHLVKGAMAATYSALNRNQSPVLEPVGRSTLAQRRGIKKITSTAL

[2] = target: T1, protein kinases (human kinome) (Homo sapiens, UniProt Q12851); conditions: for logFC MAP4K2 (Q12851): direction down; for logFC: MAP4K2 (Q12851)
T1 sequence (Q12851 1-820): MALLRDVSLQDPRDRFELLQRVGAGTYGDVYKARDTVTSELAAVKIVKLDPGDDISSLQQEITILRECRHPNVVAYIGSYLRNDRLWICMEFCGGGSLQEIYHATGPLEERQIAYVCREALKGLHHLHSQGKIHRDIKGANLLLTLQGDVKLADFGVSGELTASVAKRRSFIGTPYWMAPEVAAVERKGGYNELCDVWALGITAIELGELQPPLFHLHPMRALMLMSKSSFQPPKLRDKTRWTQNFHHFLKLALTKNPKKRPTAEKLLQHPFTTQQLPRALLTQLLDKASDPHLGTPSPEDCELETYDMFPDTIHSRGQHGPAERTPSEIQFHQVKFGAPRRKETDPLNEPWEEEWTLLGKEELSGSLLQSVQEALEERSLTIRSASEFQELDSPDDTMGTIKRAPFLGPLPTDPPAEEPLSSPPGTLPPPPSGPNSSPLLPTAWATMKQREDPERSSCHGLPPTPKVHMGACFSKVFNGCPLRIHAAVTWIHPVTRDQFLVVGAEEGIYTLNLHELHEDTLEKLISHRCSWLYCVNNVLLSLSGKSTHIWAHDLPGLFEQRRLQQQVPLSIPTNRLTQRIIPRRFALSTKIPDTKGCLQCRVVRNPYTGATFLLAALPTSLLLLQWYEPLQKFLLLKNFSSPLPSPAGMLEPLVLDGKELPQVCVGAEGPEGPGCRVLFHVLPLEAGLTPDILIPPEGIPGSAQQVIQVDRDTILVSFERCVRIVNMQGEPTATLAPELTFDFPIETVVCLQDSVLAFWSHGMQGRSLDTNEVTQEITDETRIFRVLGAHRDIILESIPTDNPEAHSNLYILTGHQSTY

[3] = target: protein kinases (human kinome) (Homo sapiens, UniProt Q14289); conditions: for logFC: PTK2B (Q14289-1) protein abundance, degrader vs DMSO, down
Sequence of protein kinases (human kinome) (Homo sapiens, UniProt Q14289) (Q14289 whole entry): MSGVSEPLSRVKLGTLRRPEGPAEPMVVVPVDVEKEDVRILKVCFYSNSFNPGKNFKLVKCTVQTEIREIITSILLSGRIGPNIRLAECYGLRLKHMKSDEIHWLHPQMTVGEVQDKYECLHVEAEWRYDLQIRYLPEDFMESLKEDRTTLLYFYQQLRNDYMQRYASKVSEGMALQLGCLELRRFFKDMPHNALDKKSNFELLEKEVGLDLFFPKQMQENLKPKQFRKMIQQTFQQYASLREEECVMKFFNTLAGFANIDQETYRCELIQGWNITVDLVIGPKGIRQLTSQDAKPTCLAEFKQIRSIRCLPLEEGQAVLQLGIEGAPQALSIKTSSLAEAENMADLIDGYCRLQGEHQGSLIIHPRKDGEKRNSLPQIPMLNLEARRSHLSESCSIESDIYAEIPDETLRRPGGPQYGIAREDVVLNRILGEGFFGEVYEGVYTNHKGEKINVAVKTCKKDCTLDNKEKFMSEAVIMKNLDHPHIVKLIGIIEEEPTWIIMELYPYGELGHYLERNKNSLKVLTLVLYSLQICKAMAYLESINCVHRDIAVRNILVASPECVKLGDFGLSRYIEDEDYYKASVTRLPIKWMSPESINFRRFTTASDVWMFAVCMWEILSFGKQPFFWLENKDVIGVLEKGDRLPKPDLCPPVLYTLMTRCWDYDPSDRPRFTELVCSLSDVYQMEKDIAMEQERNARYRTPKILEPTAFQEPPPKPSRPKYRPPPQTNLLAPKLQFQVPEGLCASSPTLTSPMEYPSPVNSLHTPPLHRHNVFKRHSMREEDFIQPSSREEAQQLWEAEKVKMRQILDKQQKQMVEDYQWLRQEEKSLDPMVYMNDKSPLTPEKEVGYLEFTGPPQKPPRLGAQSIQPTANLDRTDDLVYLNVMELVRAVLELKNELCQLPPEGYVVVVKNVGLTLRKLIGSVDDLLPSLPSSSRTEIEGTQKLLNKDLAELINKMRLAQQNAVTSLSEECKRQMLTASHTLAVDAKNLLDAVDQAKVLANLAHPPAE

[4] = target: protein kinases (human kinome) (Homo sapiens, UniProt Q16539); conditions: for logFC of MAPK14: Accession Q16539; for logFC MAPK14: MAPK14, accession Q16539, direction of change down
Sequence of protein kinases (human kinome) (Homo sapiens, UniProt Q16539) (Q16539 whole entry): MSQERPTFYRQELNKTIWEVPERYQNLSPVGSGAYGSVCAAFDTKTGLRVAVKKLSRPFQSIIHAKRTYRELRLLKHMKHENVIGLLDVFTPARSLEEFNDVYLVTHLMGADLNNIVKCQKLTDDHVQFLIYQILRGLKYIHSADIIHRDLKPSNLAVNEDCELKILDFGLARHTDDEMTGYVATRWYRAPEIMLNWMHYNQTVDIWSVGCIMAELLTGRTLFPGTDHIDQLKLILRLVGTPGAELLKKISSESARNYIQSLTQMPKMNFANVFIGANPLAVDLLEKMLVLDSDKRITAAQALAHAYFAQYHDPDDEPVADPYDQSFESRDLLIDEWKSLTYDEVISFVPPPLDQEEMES

[5] = target: protein kinases (human kinome) (Homo sapiens, UniProt O43683); conditions: for logFC: BUB1 (O43683); for logFC BUB1 (O43683): direction down
Sequence of protein kinases (human kinome) (Homo sapiens, UniProt O43683) (O43683 whole entry): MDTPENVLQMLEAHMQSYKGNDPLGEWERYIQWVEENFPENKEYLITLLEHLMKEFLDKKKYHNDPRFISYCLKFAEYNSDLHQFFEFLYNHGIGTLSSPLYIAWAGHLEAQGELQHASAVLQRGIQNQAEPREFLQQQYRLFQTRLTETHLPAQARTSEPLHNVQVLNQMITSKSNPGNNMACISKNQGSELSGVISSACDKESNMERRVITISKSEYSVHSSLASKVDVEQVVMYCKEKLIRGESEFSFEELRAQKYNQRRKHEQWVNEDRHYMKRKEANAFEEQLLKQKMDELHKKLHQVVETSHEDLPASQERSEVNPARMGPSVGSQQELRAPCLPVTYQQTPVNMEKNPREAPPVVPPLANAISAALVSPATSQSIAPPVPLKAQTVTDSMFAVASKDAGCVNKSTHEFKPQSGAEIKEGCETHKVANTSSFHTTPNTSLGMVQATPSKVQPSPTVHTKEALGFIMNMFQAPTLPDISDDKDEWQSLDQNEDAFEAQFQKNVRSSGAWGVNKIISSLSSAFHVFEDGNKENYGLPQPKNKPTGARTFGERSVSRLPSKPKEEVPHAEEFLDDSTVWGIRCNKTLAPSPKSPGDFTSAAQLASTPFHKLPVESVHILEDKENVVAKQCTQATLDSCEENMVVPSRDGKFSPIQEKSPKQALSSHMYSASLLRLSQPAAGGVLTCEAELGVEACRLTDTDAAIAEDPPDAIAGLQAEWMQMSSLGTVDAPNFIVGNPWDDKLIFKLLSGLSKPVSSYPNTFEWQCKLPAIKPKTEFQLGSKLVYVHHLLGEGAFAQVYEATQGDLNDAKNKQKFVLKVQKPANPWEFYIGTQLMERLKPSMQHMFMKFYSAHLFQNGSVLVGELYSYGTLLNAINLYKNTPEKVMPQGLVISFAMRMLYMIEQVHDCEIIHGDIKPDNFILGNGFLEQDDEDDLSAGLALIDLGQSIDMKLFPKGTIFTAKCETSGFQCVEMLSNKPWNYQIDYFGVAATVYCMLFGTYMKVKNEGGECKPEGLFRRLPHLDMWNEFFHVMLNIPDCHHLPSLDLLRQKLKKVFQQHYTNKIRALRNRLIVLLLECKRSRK

[6] = target: protein kinases (human kinome) (Homo sapiens, UniProt Q00537); conditions: experiment wp146
Sequence of protein kinases (human kinome) (Homo sapiens, UniProt Q00537) (Q00537 whole entry): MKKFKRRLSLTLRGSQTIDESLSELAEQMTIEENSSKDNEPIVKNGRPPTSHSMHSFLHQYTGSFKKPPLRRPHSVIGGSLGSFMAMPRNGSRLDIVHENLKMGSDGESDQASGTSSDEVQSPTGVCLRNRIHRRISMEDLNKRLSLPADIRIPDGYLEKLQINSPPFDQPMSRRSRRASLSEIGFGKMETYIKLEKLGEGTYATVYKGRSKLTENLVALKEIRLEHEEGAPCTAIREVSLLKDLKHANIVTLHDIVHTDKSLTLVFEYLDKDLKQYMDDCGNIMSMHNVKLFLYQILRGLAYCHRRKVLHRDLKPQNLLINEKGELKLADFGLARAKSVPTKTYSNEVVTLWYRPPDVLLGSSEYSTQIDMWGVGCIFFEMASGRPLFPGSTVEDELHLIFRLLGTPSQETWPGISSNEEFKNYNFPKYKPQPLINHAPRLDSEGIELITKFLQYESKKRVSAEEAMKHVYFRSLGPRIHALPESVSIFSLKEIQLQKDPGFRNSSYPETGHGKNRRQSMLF

[7] = experiment wp168, direction down
[8] = MAPK14 (Q16539), experiment wp168

Compound: Cc1ccc(NC(=O)c2cccc(C(F)(F)F)c2)cc1N1Cc2cnc(Nc3ccc(N4CCN(Cc5cn(CCCCCOc6cccc7c6C(=O)N(C6CCC(=O)NC6=O)C7=O)nn5)CC4)nc3)nc2N(C)C1=O (stereo not drawn) [DB0646, N-(3-(7-((6-(4-((1-(5-((2-(2,6-Dioxopiperidin-3-yl)-1,3-dioxoisoindolin-4-yl)oxy)pentyl)-1H-1,2,3-triazol-4-yl)methyl)piperazin-1-v)pyridin-3-yl)amino)-1-methyl-2-oxo-1,4-dihydropyrimido[4,5-d]pyrimidin-3(2H)-yl)-4-methylphenyl)-3-(trifluoromethyl)benzamide]
- logFC ([1]; experiment wp160, 8 hr): −0.3332
- logFC ([1]; experiment wp160, 8 hr, direction down): −0.3332
- logFC MAP4K2 (Q12851) ([2]; Experiment wp045): −0.7569
- logFC MAP4K2 (Q12851) ([2]; Experiment wp103): −0.4625
- logFC MAP4K2 (Q12851) ([2]; Experiment wp107): −0.6245
- logFC MAP4K2 (Q12851) ([2]; Experiment wp117): −0.5616
- logFC MAP4K2 (Q12851) ([2]; Experiment wp152): −0.7981
- logFC MAP4K2 (Q12851) ([2]; Experiment wp160, 4 hr): −0.6132
- logFC MAP4K2 (Q12851) ([2]; Experiment wp160, 8 hr): −1.155
- logFC ([2]; experiment wp045): −0.7569
- logFC ([2]; experiment wp103): −0.4625
- logFC ([2]; experiment wp107): −0.6245
- logFC ([2]; experiment wp117): −0.5616
- logFC ([2]; experiment wp152): −0.7981
- logFC ([2]; experiment wp160, 4 hr): −0.6132
- logFC ([2]; experiment wp160, 8 hr): −1.155
- logFC PTK2B (Q14289) ([3]; Experiment wp152, direction of change down): −2.998
- logFC ([3]; 1 hr): −0.3955
- logFC ([3]; 2 hr): −1.235
- logFC ([3]; 4 hr): −2.341
- logFC ([3]; 8 hr): −2.599
- logFC PTK2B ([3]; accession Q14289-1, experiment wp045, direction of change down): −2.774
- logFC PTK2B ([3]; accession Q14289-1, experiment wp114, direction of change down): −1.358
- logFC PTK2B ([3]; accession Q14289-1, experiment wp160, 1 hr, direction of change down): −0.3955
- logFC PTK2B ([3]; accession Q14289-1, experiment wp160, 2 hr, direction of change down): −1.235
- logFC PTK2B ([3]; accession Q14289-1, experiment wp160, 4 hr, direction of change down): −2.341
- logFC PTK2B ([3]; accession Q14289-1, experiment wp160, 8 hr, direction of change down): −2.599
- logFC PTK2B ([3]; accession Q14289, experiment wp152, direction of change down): −2.998
- logFC of MAPK14 ([4]; experiment wp172): −0.6469
- logFC ([4]; MAPK14 (Q16539) protein abundance, degrader vs DMSO, down): −0.7793 and −0.6013
- logFC ([4]; MAPK14 (Q16539), experiment wp107): −0.7601
- logFC ([4]; MAPK14 (Q16539), experiment wp114): −0.5814
- logFC ([4]; MAPK14 (Q16539), experiment wp117): −0.6392
- logFC ([4]; MAPK14 (Q16539), experiment wp152): −0.7821
- logFC ([4]; MAPK14 (Q16539), experiment wp160, 2 hr): −0.4404
- logFC ([4]; MAPK14 (Q16539), experiment wp160, 4 hr): −0.7162
- logFC ([4]; MAPK14 (Q16539), experiment wp160, 8 hr): −1.153
- logFC ([4]; MAPK14 (Q16539), experiment wp172): −0.6469
- logFC MAPK14 ([4]; experiment wp045): −0.7793
- logFC MAPK14 ([4]; experiment wp103): −0.6013
- logFC MAPK14 ([4]; experiment wp107): −0.7601
- logFC MAPK14 ([4]; experiment wp114): −0.5814
- logFC MAPK14 ([4]; experiment wp117): −0.6392
- logFC MAPK14 ([4]; experiment wp152): −0.7821
- logFC MAPK14 ([4]; experiment wp160, 2 hr): −0.4404
- logFC MAPK14 ([4]; experiment wp160, 4 hr): −0.7162
- logFC MAPK14 ([4]; experiment wp160, 8 hr): −1.153
- logFC ([5]; experiment wp045): −0.3378
- logFC ([5]; experiment wp117): −0.3423
- logFC ([5]; experiment wp152): −0.4014
- logFC BUB1 (O43683) ([5]; Experiment wp045): −0.3378
- logFC BUB1 (O43683) ([5]; Experiment wp117): −0.3423
- logFC BUB1 (O43683) ([5]; Experiment wp152): −0.4014
- BUB1 degradation ([5]; MOLT-4 and MM.1S cell lines): degraded

Compound: Cc1ccc(NC(=O)c2cccc(C(F)(F)F)c2)cc1N1Cc2cnc(Nc3ccc(N4CCN(CCCOc5cccc6c5C(=O)N(C5CCC(=O)NC5=O)C6=O)CC4)nc3)nc2N(C)C1=O (stereo not drawn) [DB0662]
- logFC ([1]; experiment wp168): −0.452
- logFC [1, 7]: −0.452
- logFC [4, 8]: −1.002
- logFC MAPK14 ([4]; experiment wp166): −1.002
- logFC ([5]; experiment wp168): −0.3382
- logFC BUB1 (O43683) ([5]; Experiment wp168): −0.3382

Compound: Cc1ccc(NC(=O)c2cccc(C(F)(F)F)c2)cc1N1Cc2cnc(Nc3ccc(N4CCN(CCCCC(=O)N[C@H](C(=O)N5C[C@H](O)C[C@H]5C(=O)N[C@@H](C)c5ccc(-c6scnc6C)cc5)C(C)(C)C)CC4)nc3)nc2N(C)C1=O [DB1113]
- logFC ([1]; experiment wp168): −0.5079
- logFC [1, 7]: −0.5079
- logFC MAP4K2 (Q12851) ([2]; Experiment wp168): −2.432
- logFC ([2]; experiment wp168): −2.432
- logFC of MAPK14 ([4]; experiment wp168): −1.73
- logFC [4, 8]: −1.73

Compound: Cc1cc(Nc2ncc(Br)c(Nc3cccc(F)c3C(N)=O)n2)ccc1S(=O)(=O)NCCOCCOCCOCCOCCNc1cccc2c1C(=O)N(C1CCC(=O)NC1=O)C2=O (stereo not drawn) [TMX.02.174]
- logFC ([1]; experiment wp146): −0.4312
- logFC ([1]; experiment wp146, direction down): −0.4312
- logFC of CDK17 ([6]; Accession Q00537): −1.42
- logFC CDK17 (Q00537) ([6]; direction of change down): −1.42
- logFC [3]: −1.512
- logFC PTK2B ([3]; accession Q14289-1, experiment wp146, direction of change down): −1.512
